According to patent US5446130A, “Parathyroid hormone antagonists” (Mitsubishi Kasei Corporation, priority 1990, dated 1995):

Test system: output of cAMP produced by 5×10^-9 M hPTH (1-34) in cultured mouse osteoblast MC3T3-E1
Experiment: Determination of PTH antagonism: inhibition of cAMP output induced by hPTH (1-34) in cultured mouse osteoblast MC3T3-E1
Format: cell-based
Conditions: for IC50 Ratio: Table 3, 50% inhibition of cAMP output by 5×10^-9 M hPTH (1-34), ratio to control [Tyr34]-hPTH (3-34)-NH2 = 1
Method: PTH antagonism of the PTHrP derivatives (I) of the present invention was determined on the basis of the output of cAMP, using cultured mouse osteoblast MC3T3-E1.
To a multiwell-culture plate of 12-well were inoculated 1×10^5 cells/well of the cultured cells, and the plate was incubated at 37° C. under 95% air-5% CO2 atmosphere for 3 days after addition of α-modified MEM containing 10% semi-fetal bovine serum as a medium. Then, the medium was exchanged with α-modified MEM containing 1% bovine serum albumin and the cultured cells were incubated for 6 hours. The medium was replaced by α-modified MEM containing various concentrations of the compound of the present invention, 5×10^-9 M hPTH (1-34), 1% bovine serum albumin and 1 mM isobutylmethylxanthin, and the mixture was incubated for 1 hour. The medium was separated from the cells, and the medium was used as a sample for assaying cAMP. The cells were shaken with 90% n-propyl alcohol to extract cAMP according to Yamaguchi et al., J. Biol. Chem., 262, 7711-7718 (1987) for preparing another sample.
Assay of cAMP was performed using a commercially available cAMP-radioimmunoassay kit. […] Compound numbers in the tables correspond to those in Table 2.

Compound	IC50 Ratio	concentration for 50% inhibition as fraction of that of [Tyr^34 ]-hPTH (3-34)-NH2 (relative to [Tyr34]-hPTH (3-34)-NH2)	concentration for 50% inhibition as fraction of that of hPTHrP (3-34)-NH2 (relative to hPTHrP (3-34)-NH2)
CC[C@H](C)[C@H](NC(=O)[C@H](CC(C)C)NC(=O)[C@H](Cc1c[nH]cn1)NC(=O)[C@H](Cc1c[nH]cn1)NC(=O)[C@H](CC(C)C)NC(=O)[C@H](Cc1ccccc1)NC(=O)[C@H](Cc1ccccc1)NC(=O)[C@H](CCCNC(=N)N)NC(=O)[C@H](CCCNC(=N)N)NC(=O)[C@H](CCCNC(=N)N)NC(=O)[C@H](CC(C)C)NC(=O)[C@H](CC(=O)O)NC(=O)[C@H](CCC(N)=O)NC(=O)[C@@H](NC(=O)[C@H](CO)NC(=O)[C@H](CCCCN)NC(=O)CNC(=O)[C@H](CC(C)C)NC(=O)[C@H](C)NC(=O)[C@H](Cc1c[nH]cn1)NC(=O)[C@H](CCSC)NC(=O)[C@H](CC(C)C)NC(=O)[C@H](CCC(N)=O)NC(=O)[C@@H](NC(=O)[C@H](CCC(=O)O)NC(=O)[C@@H](N)CO)[C@@H](C)CC)[C@@H](C)CC)C(=O)N[C@@H](C)C(=O)N[C@@H](CCC(=O)O)C(=O)N[C@H](C(=O)N[C@@H](Cc1c[nH]cn1)C(=O)N[C@H](C(=O)N[C@@H](C)C(N)=O)[C@@H](C)O)[C@@H](C)CC [Compound No. 1]	0.003	below 1/300	about 1/29
CC[C@H](C)[C@H](NC(=O)[C@H](CC(C)C)NC(=O)[C@H](Cc1c[nH]cn1)NC(=O)[C@H](Cc1c[nH]cn1)NC(=O)[C@H](CC(C)C)NC(=O)[C@H](Cc1ccccc1)NC(=O)[C@H](Cc1ccccc1)NC(=O)[C@H](CCCNC(=N)N)NC(=O)[C@H](CCCNC(=N)N)NC(=O)[C@H](CCCNC(=N)N)NC(=O)[C@H](CC(C)C)NC(=O)[C@H](CC(=O)O)NC(=O)[C@H](CCC(N)=O)NC(=O)[C@@H](NC(=O)[C@H](CO)NC(=O)[C@H](CCCCN)NC(=O)CNC(=O)[C@H](CC(C)C)NC(=O)[C@H](CCC(N)=O)NC(=O)[C@H](Cc1c[nH]cn1)NC(=O)[C@H](CCSC)NC(=O)[C@H](CC(C)C)NC(=O)[C@H](CCC(N)=O)NC(=O)[C@@H](NC(=O)[C@H](CCC(=O)O)NC(=O)[C@@H](N)CO)[C@@H](C)CC)[C@@H](C)CC)C(=O)N[C@@H](C)C(=O)N[C@@H](CCC(=O)O)C(=O)N[C@H](C(=O)N[C@@H](Cc1c[nH]cn1)C(=O)N[C@H](C(=O)N[C@@H](C)C(N)=O)[C@@H](C)O)[C@@H](C)CC [Compound No. 2]	0.003	–	–
CC[C@H](C)[C@H](NC(=O)[C@H](CC(C)C)NC(=O)[C@H](Cc1c[nH]cn1)NC(=O)[C@H](Cc1c[nH]cn1)NC(=O)[C@H](CC(C)C)NC(=O)[C@H](Cc1ccccc1)NC(=O)[C@H](Cc1ccccc1)NC(=O)[C@H](CCCNC(=N)N)NC(=O)[C@H](CCCNC(=N)N)NC(=O)[C@H](CCCNC(=N)N)NC(=O)[C@H](CC(C)C)NC(=O)[C@H](CC(=O)O)NC(=O)[C@H](CCC(N)=O)NC(=O)[C@@H](NC(=O)[C@H](CO)NC(=O)[C@H](CCCCN)NC(=O)CNC(=O)[C@H](CCCCN)NC(=O)[C@H](CC(=O)O)NC(=O)[C@H](Cc1c[nH]cn1)NC(=O)[C@H](CCSC)NC(=O)[C@H](CC(C)C)NC(=O)[C@H](CCC(N)=O)NC(=O)[C@@H](N)Cc1ccccc1)[C@@H](C)CC)C(=O)N[C@@H](C)C(=O)N[C@@H](CCC(=O)O)C(=O)N[C@H](C(=O)N[C@@H](Cc1c[nH]cn1)C(=O)N[C@H](C(=O)N[C@@H](C)C(N)=O)[C@@H](C)O)[C@@H](C)CC [Compound No. 8]	0.026	–	–
